Test results published in publication PMC11822212, “High-throughput screening identifies Aurora kinase B as a critical therapeutic target for Merkel cell carcinoma” (Nature Communications, 2025).
Where two headings read alike, the source gives them in different places.

How the values were obtained:
HACAT cells = test: qHTS cell viability (CellTiter-Glo, 72 h; primary screen), control cell line; type: cell-based, human
[1] = test system: VP-MCC cell lines (WAGA, MKL-1, MKL-2); test: qHTS cell viability, VP-MCC cell lines as a group (mean AUC, VP.MCC.avg); type: cell-based, human
[2] = test system: control cell lines (HACAT, HEK293T, CRL-7250, NIH-3T3); test: qHTS cell viability, control cell lines as a group (mean AUC, Control.avg); type: cell-based
NIH-3T3 cells = test: qHTS cell viability (CellTiter-Glo, 72 h; primary screen), control cell line; type: cell-based, mouse
HEK293T cells = test: as above; type: cell-based, human
[3] = test system: MCC cell lines (WAGA, MKL-1, MKL-2, MCC13, MCC26, UISO); test: qHTS cell viability, all six MCC cell lines as a group (mean AUC, MCC.avg); type: cell-based, human
MKL-1 cells (VP-MCC) = test: qHTS cell viability (CellTiter-Glo, 72 h; primary and follow-up small molecule screen); type: cell-based, human
[4] = test system: VN-MCC cell lines (MCC13, MCC26, UISO); test: qHTS cell viability, VN-MCC cell lines as a group (mean AUC, VN.MCC.avg); type: cell-based, human
[5] = test system: six MCC cell lines and four control cell lines; test: qHTS cell viability, all 10 cell lines screened; type: cell-based
UISO cells (VN-MCC) = test: qHTS cell viability (CellTiter-Glo, 72 h; primary and follow-up small molecule screen); type: cell-based, human
WAGA cells (VP-MCC) = test: as above; type: cell-based, human
MCC26 cells (VN-MCC) = test: as above; type: cell-based, human
MCC13 cells (VN-MCC) = test: as above; type: cell-based, human
MKL-2 cells (VP-MCC) = test: as above; type: cell-based, human
CRL-7250 cells = test: qHTS cell viability (CellTiter-Glo, 72 h; primary screen), control cell line; type: cell-based
[6] = MIPE library, 11-point DRC, control cell line, sheet S2E
[7] = area under the dose-response curve, HACAT control cells, AUC<450 = reduced viability
[8] = MIPE library, Control AUC minus VP-MCC AUC (therapeutic window), sheet S2E
[9] = MIPE library, mean AUC of VP-MCC cell lines, sheet S2E
[10] = MIPE library, mean AUC of control cell lines, sheet S2E
[11] = area under the dose-response curve, NIH3T3 control cells, AUC<450 = reduced viability
[12] = area under the dose-response curve, HEK293T control cells, AUC<450 = reduced viability
[13] = MIPE library, mean AUC of six MCC cell lines, sheet S2E
[14] = MIPE library, 11-point DRC, sheet S2E
[15] = area under the dose-response curve, MKL-1 cells, AUC<450 = reduced viability
[16] = MIPE library, Control AUC minus VN-MCC AUC (therapeutic window), sheet S2E
[17] = MIPE library, mean AUC of VN-MCC cell lines, sheet S2E
[18] = MIPE library, Control AUC minus MCC AUC (therapeutic window), sheet S2E
[19] = area under the dose-response curve, UISO cells, AUC<450 = reduced viability
[20] = area under the dose-response curve, WAGA cells, AUC<450 = reduced viability
[21] = area under the dose-response curve, MCC26 cells, AUC<450 = reduced viability
[22] = area under the dose-response curve, MCC13 cells, AUC<450 = reduced viability
[23] = area under the dose-response curve, MKL-2 cells, AUC<450 = reduced viability
[24] = area under the dose-response curve, CRL7250 control cells, AUC<450 = reduced viability

C[C@@H]1CN(CCCn2c3ccccc3c3ccccc32)C[C@H](C)N1.Cl.Cl [Rimcazole dihydrochloride]
HACAT_AUC (HACAT cells; NPC library, qHTS dose-response AUC, HACAT control): 421.634
VP-MCC_Avg_AUC ([1]; NPC library, mean AUC of VP-MCC cell lines): 379.963
Control-VP-MCC ([1]; NPC library, therapeutic window: Control avg AUC minus VP-MCC avg AUC): 70.5333
Control_Avg_AUC ([2]; NPC library, mean AUC of control cell lines): 450.496
NIH3T3_AUC (NIH-3T3 cells; NPC library, qHTS dose-response AUC, NIH3T3 control): 464.02
HEK293T_AUC (HEK293T cells; NPC library, qHTS dose-response AUC, HEK293T control): 453.163
MCC_Avg_AUC ([3]; NPC library, mean AUC of six MCC cell lines): 415.095
MKL1_AUC (MKL-1 cells (VP-MCC); NPC library, qHTS dose-response AUC, MKL1): 392.844
VN-MCC_Avg_AUC ([4]; NPC library, mean AUC of VN-MCC cell lines): 450.226
Control-VN-MCC ([4]; NPC library, therapeutic window: Control avg AUC minus VN-MCC avg AUC): 0.27
Control-MCC ([5]; NPC library, therapeutic window: Control avg AUC minus MCC avg AUC): 35.4016
UISO_AUC (UISO cells (VN-MCC); NPC library, qHTS dose-response AUC, UISO): 420.46
WAGA_AUC (WAGA cells (VP-MCC); NPC library, qHTS dose-response AUC, WAGA): 396.152
MCC26_AUC (MCC26 cells (VN-MCC); NPC library, qHTS dose-response AUC, MCC26): 457.379
MCC13_AUC (MCC13 cells (VN-MCC); NPC library, qHTS dose-response AUC, MCC13): 472.84
MKL2_AUC (MKL-2 cells (VP-MCC); NPC library, qHTS dose-response AUC, MKL2): 350.893
CRL7250_AUC (CRL-7250 cells; NPC library, qHTS dose-response AUC, CRL7250 control): 463.168

COc1ccc(C(=O)CC(=O)c2ccc(C(C)(C)C)cc2)cc1
HACAT_AUC (HACAT cells; [6]): 476.58
HACAT_AUC (HACAT cells; [7]): 467.786
Control-VP-MCC [1, 8]: 140.718
VP-MCC_Avg_AUC [1, 9]: 319.984
Control_Avg_AUC [2, 10]: 460.702
NIH3T3_AUC (NIH-3T3 cells; [6]): 477.589
NIH3T3_AUC (NIH-3T3 cells; [11]): 482.946
HEK293T_AUC (HEK293T cells; [6]): 472.366
HEK293T_AUC (HEK293T cells; [12]): 465.048
MCC_Avg_AUC [3, 13]: 394.964
MKL1_AUC (MKL-1 cells (VP-MCC); [14]): 339.212
MKL1_AUC (MKL-1 cells (VP-MCC); [15]): 411.648
Control-VN-MCC [4, 16]: -9.242
VN-MCC_Avg_AUC [4, 17]: 469.944
Control-MCC [5, 18]: 65.7381
UISO_AUC (UISO cells (VN-MCC); [14]): 429.371
UISO_AUC (UISO cells (VN-MCC); [19]): 482.124
WAGA_AUC (WAGA cells (VP-MCC); [14]): 305.979
WAGA_AUC (WAGA cells (VP-MCC); [20]): 381.481
MCC26_AUC (MCC26 cells (VN-MCC); [14]): 485.026
MCC26_AUC (MCC26 cells (VN-MCC); [21]): 481.864
MCC13_AUC (MCC13 cells (VN-MCC); [14]): 495.434
MCC13_AUC (MCC13 cells (VN-MCC); [22]): 482.294
MKL2_AUC (MKL-2 cells (VP-MCC); [14]): 314.76
MKL2_AUC (MKL-2 cells (VP-MCC); [23]): 386.921
CRL7250_AUC (CRL-7250 cells; [6]): 416.272
CRL7250_AUC (CRL-7250 cells; [24]): 453.419

CCC(=O)O[C@@H]1C=C2CCC3C(CCC4(C)C3CC[C@@H]4OC(=O)CC)C2CC1 (stereo partly drawn) [Bolandiol dipropionate]
HACAT_AUC (HACAT cells): 443.174
Control-VP-MCC [1]: 69.3739
VP-MCC_Avg_AUC [1]: 402.354
Control_Avg_AUC [2]: 471.728
NIH3T3_AUC (NIH-3T3 cells): 491.81
HEK293T_AUC (HEK293T cells): 471.071
MCC_Avg_AUC [3]: 449.182
MKL1_AUC (MKL-1 cells (VP-MCC)): 411.821
Control-VN-MCC [4]: -24.2823
VN-MCC_Avg_AUC [4]: 496.011
Control-MCC [5]: 22.5458
UISO_AUC (UISO cells (VN-MCC)): 526.911
WAGA_AUC (WAGA cells (VP-MCC)): 383.532
MCC26_AUC (MCC26 cells (VN-MCC)): 482.222
MCC13_AUC (MCC13 cells (VN-MCC)): 478.899
MKL2_AUC (MKL-2 cells (VP-MCC)): 411.71
CRL7250_AUC (CRL-7250 cells): 480.859

N[C@@H](Cc1ccc(N(CCCl)CCCl)cc1)C(=O)O [Melphalan]
HACAT_AUC (HACAT cells): 448.936
Control-VP-MCC [1]: 62.3672
VP-MCC_Avg_AUC [1]: 393.574
Control_Avg_AUC [2]: 455.942
NIH3T3_AUC (NIH-3T3 cells): 465.754
HEK293T_AUC (HEK293T cells): 460.279
MCC_Avg_AUC [3]: 419.939
MKL1_AUC (MKL-1 cells (VP-MCC)): 386.049
Control-VN-MCC [4]: 9.639
VN-MCC_Avg_AUC [4]: 446.303
Control-MCC [5]: 36.0029
UISO_AUC (UISO cells (VN-MCC)): 405.245
WAGA_AUC (WAGA cells (VP-MCC)): 417.577
MCC26_AUC (MCC26 cells (VN-MCC)): 465.715
MCC13_AUC (MCC13 cells (VN-MCC)): 467.949
MKL2_AUC (MKL-2 cells (VP-MCC)): 377.097
CRL7250_AUC (CRL-7250 cells): 448.797

CN[C@@H]1[C@H](O)[C@H](NC)[C@H]2O[C@@]3(O)C(=O)C[C@@H](C)O[C@H]3O[C@@H]2[C@H]1O.Cl.Cl [Spectinomycin dihydrochloride]
HACAT_AUC (HACAT cells; [6]): 460.149
HACAT_AUC (HACAT cells; [7]): 475.545
Control-VP-MCC [1, 8]: 192.409
VP-MCC_Avg_AUC [1, 9]: 280.167
Control_Avg_AUC [2, 10]: 472.576
NIH3T3_AUC (NIH-3T3 cells; [6]): 480.157
NIH3T3_AUC (NIH-3T3 cells; [11]): 486.283
HEK293T_AUC (HEK293T cells; [6]): 472.116
HEK293T_AUC (HEK293T cells; [12]): 456.43
MCC_Avg_AUC [3, 13]: 362.621
MKL1_AUC (MKL-1 cells (VP-MCC); [14]): 242.204
MKL1_AUC (MKL-1 cells (VP-MCC); [15]): 379.185
Control-VN-MCC [4, 16]: 27.501
VN-MCC_Avg_AUC [4, 17]: 445.075
Control-MCC [5, 18]: 109.955
UISO_AUC (UISO cells (VN-MCC); [14]): 392.644
UISO_AUC (UISO cells (VN-MCC); [19]): 477.843
WAGA_AUC (WAGA cells (VP-MCC); [14]): 274.54
WAGA_AUC (WAGA cells (VP-MCC); [20]): 400.83
MCC26_AUC (MCC26 cells (VN-MCC); [14]): 481.076
MCC26_AUC (MCC26 cells (VN-MCC); [21]): 511.183
MCC13_AUC (MCC13 cells (VN-MCC); [14]): 461.506
MCC13_AUC (MCC13 cells (VN-MCC); [22]): 467.588
MKL2_AUC (MKL-2 cells (VP-MCC); [14]): 323.757
MKL2_AUC (MKL-2 cells (VP-MCC); [23]): 429.069
CRL7250_AUC (CRL-7250 cells; [6]): 477.882
CRL7250_AUC (CRL-7250 cells; [24]): 453.169
